From article PMC10251509, “Ultrafast Fragment Screening Using Photo-Hyperpolarized (CIDNP) NMR” (Journal of the American Chemical Society, 2023)

Legend:
PIN1 [1] = molecular target: T1, PIN1 (Homo sapiens, UniProt Q13526); experiment: automated flow-through photo-CIDNP 1D 1H NMR screening against PIN1; format: binding; conditions: flow cell, 50 μM compound, 20 μM PIN1, 1.5 s irradiation
T1 construct: polyhistidine (N); made in house; host or cells: Escherichia coli BL21 (DE3)
Text: While several other hyperpolarization methods yield higher SNE and have been established for ligand binding detection, their implementation into a highly automated system remains challenging.[43],[44] Photo-CIDNP hyperpolarization presents the advantage of being generated in situ, at room temperature, in solution, simply by shining light on the sample. To illustrate the agility of the photo-CIDNP ligand screening approach, we designed a flow-through setup compatible with a cryoprobe (Figure 7C). The setup consists of a pump, an autosampler, a valve, and a 3D printed flow cell (Figure 7B,C), which comprises an optic fiber for light irradiation coming from a 1.6 W diode laser emitting at 450 nm from Thorlabs. […] (iv) While the flow is stopped, a photo-CIDNP ^1H 1D NMR spectrum is recorded, as described above. […]
Figure 7 Automated screening of PIN1 with Nmhare1.0 library using photo-CIDNP 1D ^1H NMR. […] The photo-CIDNP NMR experiment is then recorded with the pulse program triggering light irradiation, and subsequently performing the NMR experiment acquisition, the NMR experiment can comprehend different numbers of transients (NS) and indirect time dimension points (TD) that will increase the measurement time accordingly; finally, the sample is washed by restoring the flow in the fluidic connection. […]

PIN1 [2] = molecular target: T1, PIN1; experiment: T1ρ relaxation NMR experiment, PIN1; format: binding
Method: For comparison, the signal decay during a T1ρ NMR experiment was measured at the same sample conditions as the photo-CIDNP experiments (Table 2). The signal decay between two T1ρ relaxation delays of 10 and 400 ms is measured in the absence and presence of the PIN1 protein. The increase in signal decay is calculated as the ratio of the integral’s ratio, i.e., (Γ400ms/Γ10ms)PL/(Γ400ms/Γ10ms)L. The most affine binders, compounds 1 and 13, show a significant reduction of the T1ρ decay ratio upon PIN1 addition, witnessing an increase in the relaxation decay. […] The signal-to-noise of the T1ρ spectra were ca. 300 for a number of transients of 512, corresponding to a measurement time of 25 min, while the photo-CIDNP experiments provided a signal-to-noise of ca. 100 for a single-scan experiment corresponding to a two second’s experiment. […] The signal-to-noise of the STD NMR experiments[1] was only 25 and 19 for compounds 1 and 13, respectively, after 50 min measurement corresponding to a 512 transient’s experiment.
For the control binding experiments using ligand-induced chemical shift perturbation analysis, standard [^15N, ^1H]-HSQC spectra were measured. The detailed conditions for the 2D experiments acquired at 600 MHz ^1H NMR frequency were the 100 μM ^15N-labeled PDZ2 domain in the absence and presence of equimolar peptide in PDZ2 buffer and at a temperature of 298 K and 50 μM ^15N-labeled PIN1 in the absence and presence of 200 μM ligands in PIN1 buffer and at a temperature of 298 K, respectively. Typically, 220 (t1,max (^15N) = 47.6 ms) × 1024 (t2,max (^1H) = 60.8 ms) complex points, an interscan delay of 0.8 s, and 12 scans per increment were measured. The data was zero–filled to 2048 points in the direct proton dimension and to 256 points in the ^15N–dimension. Processing was done with a shifted cosine window function for both dimensions. […] The spinlock times were set at 10 and 400 ms. The STD experiments were measured at 298 K with 16,384 (tmax (^1H) = 974 ms) complex points and 512 scans per increment. The on-resonance saturation pulse was set at 0 ppm, and the off-resonance saturation pulse was set to 40 ppm with a saturation time of 1 s.

T1 sequence (Q13526 whole entry): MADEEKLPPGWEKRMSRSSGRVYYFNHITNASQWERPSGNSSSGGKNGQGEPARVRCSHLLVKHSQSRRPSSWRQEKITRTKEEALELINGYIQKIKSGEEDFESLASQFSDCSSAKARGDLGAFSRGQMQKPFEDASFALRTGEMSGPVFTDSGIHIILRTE

photo-CIDNP signal in presence vs absence of PIN1 (PIN1 [1]): signal reduction
T1ρ decay ratio (PIN1 [2]; 200 μM ligand, ±20 μM protein, (Γ400ms/Γ10ms)PL/(Γ400ms/Γ10ms)L): 0.45
T1ρ decay ratio (PIN1 [2]; low concentration, same sample conditions: 20 μM ligand (compound 1: 5 μM), ±2 μM PIN1): 0.76
SMILES: Cc1cccc(-c2nc(C)c(C(=O)O)[nH]2)c1 [Compound 13, reference compound]
